Test results from ChEMBL document CHEMBL4507291 (2021).

Assays:
[1] = target: T1, Activin receptor type-1B (Homo sapiens) (UniProt P36896)
T1 sequence (whole entry): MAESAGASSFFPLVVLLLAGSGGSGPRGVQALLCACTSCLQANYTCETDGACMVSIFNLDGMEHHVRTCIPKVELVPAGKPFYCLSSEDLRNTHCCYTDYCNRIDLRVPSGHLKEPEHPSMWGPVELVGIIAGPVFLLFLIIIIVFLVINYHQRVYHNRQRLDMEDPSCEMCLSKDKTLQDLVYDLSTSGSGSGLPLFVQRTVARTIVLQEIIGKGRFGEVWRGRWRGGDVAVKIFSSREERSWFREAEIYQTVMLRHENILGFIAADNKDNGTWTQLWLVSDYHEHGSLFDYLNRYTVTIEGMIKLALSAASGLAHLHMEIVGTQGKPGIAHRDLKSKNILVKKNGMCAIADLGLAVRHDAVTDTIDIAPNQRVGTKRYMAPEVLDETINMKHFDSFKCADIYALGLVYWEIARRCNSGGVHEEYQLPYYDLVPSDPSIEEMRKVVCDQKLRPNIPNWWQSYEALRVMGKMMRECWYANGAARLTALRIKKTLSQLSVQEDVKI

[2] = target: Cyclin-dependent kinase 4 (Homo sapiens) (UniProt P11802)
Cyclin-dependent kinase 4 (Homo sapiens), sequence (P11802 whole entry): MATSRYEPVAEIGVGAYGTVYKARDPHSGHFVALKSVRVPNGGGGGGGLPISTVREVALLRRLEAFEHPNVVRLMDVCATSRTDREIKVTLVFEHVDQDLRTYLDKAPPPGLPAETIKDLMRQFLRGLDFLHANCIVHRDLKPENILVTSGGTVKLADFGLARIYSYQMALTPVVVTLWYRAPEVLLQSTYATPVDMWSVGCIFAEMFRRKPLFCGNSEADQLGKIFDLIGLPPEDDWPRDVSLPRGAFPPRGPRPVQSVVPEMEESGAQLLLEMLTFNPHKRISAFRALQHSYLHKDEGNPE

[3] = target: Fibroblast growth factor receptor 4 (Homo sapiens) (UniProt P22455)
Fibroblast growth factor receptor 4 (Homo sapiens), sequence (P22455 22-802 limits assumed): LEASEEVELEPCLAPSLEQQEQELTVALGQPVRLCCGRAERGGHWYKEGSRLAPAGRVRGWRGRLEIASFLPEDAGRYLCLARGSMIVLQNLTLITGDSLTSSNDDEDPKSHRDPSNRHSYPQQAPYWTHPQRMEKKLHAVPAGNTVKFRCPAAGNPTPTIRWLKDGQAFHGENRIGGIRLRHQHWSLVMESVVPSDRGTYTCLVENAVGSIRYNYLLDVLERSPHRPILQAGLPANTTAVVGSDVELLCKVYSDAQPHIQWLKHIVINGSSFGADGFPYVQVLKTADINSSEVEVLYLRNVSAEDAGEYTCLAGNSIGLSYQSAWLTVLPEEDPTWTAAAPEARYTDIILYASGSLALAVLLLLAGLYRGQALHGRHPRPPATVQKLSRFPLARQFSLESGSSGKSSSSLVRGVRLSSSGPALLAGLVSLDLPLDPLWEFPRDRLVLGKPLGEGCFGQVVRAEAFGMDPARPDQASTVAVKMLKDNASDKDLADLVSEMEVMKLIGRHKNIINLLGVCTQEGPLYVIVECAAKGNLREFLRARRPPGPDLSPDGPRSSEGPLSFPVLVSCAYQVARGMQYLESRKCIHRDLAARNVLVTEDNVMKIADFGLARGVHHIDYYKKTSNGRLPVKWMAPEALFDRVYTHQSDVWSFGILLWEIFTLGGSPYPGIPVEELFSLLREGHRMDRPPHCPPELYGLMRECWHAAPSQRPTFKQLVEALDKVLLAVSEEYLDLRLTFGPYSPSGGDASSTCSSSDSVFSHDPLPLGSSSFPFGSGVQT

[4] = target: T2, Inhibitor of nuclear factor kappa-B kinase subunit epsilon (Homo sapiens) (UniProt Q14164)
T2 sequence (whole entry): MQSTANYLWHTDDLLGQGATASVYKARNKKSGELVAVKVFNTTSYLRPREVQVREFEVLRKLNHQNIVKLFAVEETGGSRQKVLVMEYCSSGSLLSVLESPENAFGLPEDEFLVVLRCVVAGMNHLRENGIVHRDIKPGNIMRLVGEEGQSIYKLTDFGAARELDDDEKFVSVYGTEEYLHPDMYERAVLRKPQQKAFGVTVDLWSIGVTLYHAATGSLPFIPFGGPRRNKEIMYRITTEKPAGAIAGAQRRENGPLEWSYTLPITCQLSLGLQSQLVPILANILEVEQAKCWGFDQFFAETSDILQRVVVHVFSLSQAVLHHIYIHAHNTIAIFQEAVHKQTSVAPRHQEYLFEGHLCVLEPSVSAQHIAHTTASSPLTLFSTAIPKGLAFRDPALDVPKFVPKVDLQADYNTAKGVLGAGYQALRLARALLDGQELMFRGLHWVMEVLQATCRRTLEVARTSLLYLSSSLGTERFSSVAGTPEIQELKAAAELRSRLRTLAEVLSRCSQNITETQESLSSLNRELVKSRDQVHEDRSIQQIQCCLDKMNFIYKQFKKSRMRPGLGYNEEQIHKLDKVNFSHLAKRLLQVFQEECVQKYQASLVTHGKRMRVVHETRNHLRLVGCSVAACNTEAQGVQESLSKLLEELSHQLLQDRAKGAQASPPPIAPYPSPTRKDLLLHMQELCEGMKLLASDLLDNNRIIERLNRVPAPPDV

[5] = target: Myosin light chain kinase, smooth muscle (Homo sapiens) (UniProt Q15746)
[6] = target: Serine/threonine-protein kinase N1 (Homo sapiens) (UniProt Q16512)
Serine/threonine-protein kinase N1 (Homo sapiens), sequence (Q16512 2-942 limits assumed): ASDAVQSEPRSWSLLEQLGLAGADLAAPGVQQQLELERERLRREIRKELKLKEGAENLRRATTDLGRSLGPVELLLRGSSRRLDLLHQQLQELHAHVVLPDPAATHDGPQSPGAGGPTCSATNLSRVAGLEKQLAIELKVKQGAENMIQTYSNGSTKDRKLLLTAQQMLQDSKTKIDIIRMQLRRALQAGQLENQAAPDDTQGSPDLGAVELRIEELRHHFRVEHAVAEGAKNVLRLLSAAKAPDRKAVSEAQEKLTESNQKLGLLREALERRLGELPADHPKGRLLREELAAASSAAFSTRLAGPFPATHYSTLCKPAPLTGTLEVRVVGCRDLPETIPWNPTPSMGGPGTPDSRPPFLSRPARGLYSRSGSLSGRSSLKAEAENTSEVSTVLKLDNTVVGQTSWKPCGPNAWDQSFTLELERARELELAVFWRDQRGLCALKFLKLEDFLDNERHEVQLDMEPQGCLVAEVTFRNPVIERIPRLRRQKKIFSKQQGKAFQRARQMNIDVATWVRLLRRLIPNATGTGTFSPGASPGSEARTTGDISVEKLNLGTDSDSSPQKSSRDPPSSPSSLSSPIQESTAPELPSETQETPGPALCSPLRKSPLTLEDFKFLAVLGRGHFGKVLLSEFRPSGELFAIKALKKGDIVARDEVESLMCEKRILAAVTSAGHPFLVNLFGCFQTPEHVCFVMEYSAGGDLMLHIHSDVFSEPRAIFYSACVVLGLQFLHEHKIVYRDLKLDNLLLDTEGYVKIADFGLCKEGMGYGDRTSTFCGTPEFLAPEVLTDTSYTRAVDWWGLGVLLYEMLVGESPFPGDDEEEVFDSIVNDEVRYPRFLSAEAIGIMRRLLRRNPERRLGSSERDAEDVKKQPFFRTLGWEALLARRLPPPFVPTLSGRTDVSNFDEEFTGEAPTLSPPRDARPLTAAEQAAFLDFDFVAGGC

[7] = target: T3, Protein kinase C epsilon type (Homo sapiens) (UniProt Q02156)
T3 sequence (whole entry): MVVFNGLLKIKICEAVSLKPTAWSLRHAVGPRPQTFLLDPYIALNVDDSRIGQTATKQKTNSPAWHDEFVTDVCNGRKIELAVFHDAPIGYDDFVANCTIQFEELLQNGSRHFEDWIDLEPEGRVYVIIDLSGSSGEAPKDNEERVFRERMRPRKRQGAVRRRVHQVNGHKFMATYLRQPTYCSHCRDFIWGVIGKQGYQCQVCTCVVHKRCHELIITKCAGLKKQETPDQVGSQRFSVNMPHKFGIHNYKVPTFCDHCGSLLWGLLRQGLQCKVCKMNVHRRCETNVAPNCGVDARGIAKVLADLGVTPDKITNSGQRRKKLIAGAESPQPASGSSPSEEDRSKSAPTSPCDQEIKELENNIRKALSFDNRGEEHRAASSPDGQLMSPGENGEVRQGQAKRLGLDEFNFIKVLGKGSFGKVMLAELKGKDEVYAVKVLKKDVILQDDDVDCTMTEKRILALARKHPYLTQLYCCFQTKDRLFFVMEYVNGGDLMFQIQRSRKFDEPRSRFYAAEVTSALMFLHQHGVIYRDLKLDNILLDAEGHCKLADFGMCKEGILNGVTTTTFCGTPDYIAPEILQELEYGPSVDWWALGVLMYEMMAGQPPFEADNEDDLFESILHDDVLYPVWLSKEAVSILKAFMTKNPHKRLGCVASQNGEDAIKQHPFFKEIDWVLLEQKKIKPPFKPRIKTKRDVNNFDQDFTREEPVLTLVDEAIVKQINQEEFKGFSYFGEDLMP

[8] = target: Dual serine/threonine and tyrosine protein kinase (Homo sapiens) (UniProt Q6XUX3)
Dual serine/threonine and tyrosine protein kinase (Homo sapiens), sequence (Q6XUX3 whole entry): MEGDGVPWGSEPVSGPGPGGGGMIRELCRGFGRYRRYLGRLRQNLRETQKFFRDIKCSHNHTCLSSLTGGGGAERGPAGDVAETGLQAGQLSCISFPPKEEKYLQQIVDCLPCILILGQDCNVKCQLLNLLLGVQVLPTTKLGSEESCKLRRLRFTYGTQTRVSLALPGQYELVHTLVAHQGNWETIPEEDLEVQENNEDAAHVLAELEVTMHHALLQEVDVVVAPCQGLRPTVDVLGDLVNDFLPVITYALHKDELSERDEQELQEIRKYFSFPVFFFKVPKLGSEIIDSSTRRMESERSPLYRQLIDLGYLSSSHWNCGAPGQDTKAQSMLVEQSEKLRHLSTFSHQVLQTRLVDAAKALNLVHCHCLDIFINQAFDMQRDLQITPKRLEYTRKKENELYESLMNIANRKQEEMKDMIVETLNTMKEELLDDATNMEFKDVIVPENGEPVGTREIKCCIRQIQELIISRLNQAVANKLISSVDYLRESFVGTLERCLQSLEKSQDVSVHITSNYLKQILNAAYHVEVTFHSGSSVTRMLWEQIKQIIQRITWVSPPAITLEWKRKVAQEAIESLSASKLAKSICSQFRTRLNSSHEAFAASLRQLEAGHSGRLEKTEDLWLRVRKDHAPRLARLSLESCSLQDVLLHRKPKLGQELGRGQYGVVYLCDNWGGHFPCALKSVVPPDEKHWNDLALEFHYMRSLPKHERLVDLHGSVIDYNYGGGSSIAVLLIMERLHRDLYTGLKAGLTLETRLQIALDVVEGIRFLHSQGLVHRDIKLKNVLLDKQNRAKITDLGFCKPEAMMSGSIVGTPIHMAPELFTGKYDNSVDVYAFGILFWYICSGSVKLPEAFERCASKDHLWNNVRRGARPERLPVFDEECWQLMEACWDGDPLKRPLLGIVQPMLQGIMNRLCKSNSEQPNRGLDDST

[9] = target: Non-receptor tyrosine-protein kinase TYK2 (Homo sapiens) (UniProt P29597)
Non-receptor tyrosine-protein kinase TYK2 (Homo sapiens), sequence (P29597 whole entry): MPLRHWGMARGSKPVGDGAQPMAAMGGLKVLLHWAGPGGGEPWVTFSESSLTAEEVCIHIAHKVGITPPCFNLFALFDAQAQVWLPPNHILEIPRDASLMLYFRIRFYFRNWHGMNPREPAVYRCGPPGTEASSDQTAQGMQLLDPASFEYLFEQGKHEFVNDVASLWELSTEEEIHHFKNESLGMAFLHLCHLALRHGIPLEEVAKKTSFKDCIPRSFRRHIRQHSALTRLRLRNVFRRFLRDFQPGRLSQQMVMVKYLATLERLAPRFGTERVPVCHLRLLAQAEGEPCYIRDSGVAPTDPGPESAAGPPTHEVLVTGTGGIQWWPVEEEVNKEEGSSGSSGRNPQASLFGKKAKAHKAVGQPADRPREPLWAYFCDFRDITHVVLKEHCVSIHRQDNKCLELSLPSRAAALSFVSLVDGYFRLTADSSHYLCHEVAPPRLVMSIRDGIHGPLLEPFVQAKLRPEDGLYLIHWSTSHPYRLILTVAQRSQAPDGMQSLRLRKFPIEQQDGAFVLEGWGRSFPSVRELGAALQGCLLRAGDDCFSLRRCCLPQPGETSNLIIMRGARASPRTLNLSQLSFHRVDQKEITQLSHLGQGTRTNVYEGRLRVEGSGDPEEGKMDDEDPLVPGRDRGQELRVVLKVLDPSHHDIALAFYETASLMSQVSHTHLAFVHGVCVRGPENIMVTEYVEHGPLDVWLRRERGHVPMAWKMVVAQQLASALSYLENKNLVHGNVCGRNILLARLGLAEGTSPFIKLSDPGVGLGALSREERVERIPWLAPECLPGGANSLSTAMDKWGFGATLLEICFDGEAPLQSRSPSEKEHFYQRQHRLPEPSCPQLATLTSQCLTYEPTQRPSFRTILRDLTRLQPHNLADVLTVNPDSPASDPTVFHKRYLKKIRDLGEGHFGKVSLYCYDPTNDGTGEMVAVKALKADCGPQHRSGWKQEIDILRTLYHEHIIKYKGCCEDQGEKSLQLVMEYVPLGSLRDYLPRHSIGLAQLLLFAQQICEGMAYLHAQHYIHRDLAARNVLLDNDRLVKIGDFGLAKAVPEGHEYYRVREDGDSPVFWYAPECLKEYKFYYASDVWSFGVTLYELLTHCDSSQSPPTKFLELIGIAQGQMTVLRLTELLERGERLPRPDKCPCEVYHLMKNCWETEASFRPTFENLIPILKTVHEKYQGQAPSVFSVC

[10] = Compound concentration 100.0 nM
[11] = Compound concentration 1000.0 nM

Measured: residual activity

C[C@@H]1CN(c2cc(-c3n[nH]c4ccc(OC5(C)CC5)cc34)ncn2)C[C@H](C)O1 [MLi-2]
inactive: [1]; [10] 90% | [2]; [10] 71% | [3]; [10] 100% | [4]; [10] 74% | [5]; [10] 56% | [6]; [10] 91% | [7]; [10] 95% | [8]; [10] 77% | [9]; [10] 81%

C[C@@H]1CN(c2cc(-c3nn(C)c4ccc(OC5(C)CC5)cc34)ncn2)C[C@H](C)O1 [MLi-2-NC]
inactive: [1]; [11] 78% | [2]; [11] 91% | [3]; [11] 100% | [4]; [11] 65% | [5]; [11] 64% | [6]; [11] 100% | [7]; [11] 100% | [8]; [11] 67% | [9]; [11] 51%
